Measured values reported in patent US20240327421A1 (Marquette University, priority 2017, published 2024).
Where “and” joins values, the source holds several entries; their conditions need not be identical. Equal entries are not always repeated. Entries after “also recorded” stand apart in the source; their conditions may differ.

Assays:
Androgen Receptor (AR) = biological target: T1, Androgen Receptor (AR) (Homo sapiens, UniProt P10275); assay: GeneBLAzer nuclear hormone receptor specificity assay, AR; type: cell-based; settings: 0.25 to 25 μM; listed as ISP358-2
T1 sequence (P10275 669-900 limits assumed): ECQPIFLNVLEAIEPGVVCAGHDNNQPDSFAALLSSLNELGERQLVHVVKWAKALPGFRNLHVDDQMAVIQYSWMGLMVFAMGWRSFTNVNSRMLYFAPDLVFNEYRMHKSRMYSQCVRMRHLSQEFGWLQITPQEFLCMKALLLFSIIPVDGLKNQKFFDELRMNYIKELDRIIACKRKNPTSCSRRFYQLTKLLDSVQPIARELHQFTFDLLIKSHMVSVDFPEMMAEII

[1] = biological target: T2, Mineralocorticoid Receptor (MR) (Homo sapiens, UniProt P08235); assay: GeneBLAzer nuclear hormone receptor specificity assay, MR; type: cell-based; settings: 0.25 to 25 μM; listed as ISP358-2
T2 sequence (P08235 726-964 limits assumed): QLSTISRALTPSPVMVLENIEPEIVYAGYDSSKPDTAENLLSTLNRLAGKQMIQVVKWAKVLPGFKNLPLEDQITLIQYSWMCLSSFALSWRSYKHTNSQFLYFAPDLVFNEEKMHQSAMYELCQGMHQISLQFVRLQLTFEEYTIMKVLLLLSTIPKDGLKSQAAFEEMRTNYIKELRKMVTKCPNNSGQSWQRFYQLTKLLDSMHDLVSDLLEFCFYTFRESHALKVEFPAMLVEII

[2] = biological target: T3, Peroxisome Proliferator-Activated Receptor (PPARδ) (Homo sapiens, UniProt Q03181); assay: GeneBLAzer nuclear hormone receptor specificity assay, PPARδ; type: cell-based; settings: 0.25 to 25 μM; listed as ISP358-2
T3 sequence (Q03181 211-439 limits assumed): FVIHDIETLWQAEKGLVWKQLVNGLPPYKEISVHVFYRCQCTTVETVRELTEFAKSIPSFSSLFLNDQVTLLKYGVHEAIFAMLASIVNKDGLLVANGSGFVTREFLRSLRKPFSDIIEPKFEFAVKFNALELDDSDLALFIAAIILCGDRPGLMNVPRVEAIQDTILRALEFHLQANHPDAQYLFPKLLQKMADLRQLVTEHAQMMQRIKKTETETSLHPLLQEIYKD
Method: Nuclear Hormone Receptor Specificity Assay. Selectivity measurements were performed using the SelectScreen™ cell-based nuclear receptor profiling service from ThermoFisher (FIG. 3A). This is a FRET-based assay that uses GeneBLAzer™ technology. It detects ligand binding to and activation of a nuclear hormone receptor of interest (ligand binding domain; LBD) that is fused to a GAL4 DNA binding domain (DBD), which upon activation induces expression of beta-lactamase. The assay has a Z′≥0.5 in agonist mode. […]

Vitamin D Receptor (VDR) = biological target: T4, Vitamin D Receptor (VDR) (Homo sapiens, UniProt P11473); assay: GeneBLAzer nuclear hormone receptor specificity assay, VDR; type: cell-based; settings: 0.25 to 25 μM; listed as ISP358-2
T4 sequence (P11473 127-423 limits assumed): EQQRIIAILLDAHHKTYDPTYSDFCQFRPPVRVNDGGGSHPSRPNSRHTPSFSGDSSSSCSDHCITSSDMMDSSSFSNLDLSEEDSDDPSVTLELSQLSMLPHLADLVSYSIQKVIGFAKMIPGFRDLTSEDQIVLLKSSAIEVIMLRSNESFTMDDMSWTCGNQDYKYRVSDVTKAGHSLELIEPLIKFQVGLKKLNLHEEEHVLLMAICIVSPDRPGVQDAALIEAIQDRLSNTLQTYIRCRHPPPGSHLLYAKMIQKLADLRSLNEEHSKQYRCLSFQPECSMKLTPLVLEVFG

ERα = biological target: T5, ERα (Homo sapiens, UniProt P03372); assay: Cell-based luciferase reporter assay, full length ERα, agonist mode; settings: full length ERα, 22 h, read-out: ERα agon. IC50
T5 construct: employs a full length and native ER (comprised of an ER LBD and an ER DBD)
T5 sequence (P03372 1-595): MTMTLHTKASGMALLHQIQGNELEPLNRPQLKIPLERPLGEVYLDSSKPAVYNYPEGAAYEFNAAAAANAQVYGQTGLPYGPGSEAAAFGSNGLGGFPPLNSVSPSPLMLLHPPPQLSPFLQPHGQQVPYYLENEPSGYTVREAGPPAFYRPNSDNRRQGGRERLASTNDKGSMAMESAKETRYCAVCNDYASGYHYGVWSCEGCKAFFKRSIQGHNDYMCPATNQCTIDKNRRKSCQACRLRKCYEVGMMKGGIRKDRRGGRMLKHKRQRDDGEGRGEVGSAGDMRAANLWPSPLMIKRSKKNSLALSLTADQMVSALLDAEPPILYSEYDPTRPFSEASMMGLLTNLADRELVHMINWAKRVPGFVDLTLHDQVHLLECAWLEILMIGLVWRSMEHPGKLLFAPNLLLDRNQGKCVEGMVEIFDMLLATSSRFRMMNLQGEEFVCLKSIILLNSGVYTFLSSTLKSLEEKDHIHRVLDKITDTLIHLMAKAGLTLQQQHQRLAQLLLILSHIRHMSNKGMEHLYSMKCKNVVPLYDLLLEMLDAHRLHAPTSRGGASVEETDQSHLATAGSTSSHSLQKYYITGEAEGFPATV

CYP2C9 = biological target: T6, CYP2C9 (Homo sapiens, UniProt P11712); assay: P450-Glo CYP450 inhibition, CYP2C9; type: in vitro ADME; settings: highest concentration 62.6 μM
T6 construct: purchased Promega Corporation (Madison, WI)
Method: (§1) In Vitro Druggability Assays-CYP450 Binding, hERG & Nephelometry. The P450-Glo™ Screening System from Promega Corporation (Madison, WI) was used to measure CYP450 (cytochrome P450) inhibition, as described in the kit instructions. Assays were run in 96-well white plates (Corning® 3912), and luminescence was measured on a SpectraMax M5 instrument (FIG. 6). The luminescence signal is proportional to the amount of luciferin product formed by the CYP reaction. Compounds were prepared in DMSO, then an eight-step 1:2 dilution series was made in DMSO. […] After adding the relevant Cytochrome P450 enzyme, the plate was incubated at 37° C. for 10 minutes to allow components to come to temperature. Next, the NADPH regeneration system was added to activate the reaction on a luminogenic P450-GloTM substrate, and incubated at 37° C. for 10-30 min, according to kit instructions for each CYP enzyme. The enzyme reaction was stopped by the addition of Luciferin Detection Reagent and luminescence of the plate was read in a Spectramax M5 (Molecular Devices) after a 20 min incubation at room temperature. Data were normalized to positive controls (α-naphthoflavone for CYP1A2, sulfaphenazole for CYP2C9, quinidine for CYP2D6, and ketoconazole for CYP3A4). Data analysis was with Prism software, as described above.

CYP2D6 = biological target: T7, CYP2D6 (Homo sapiens, UniProt P10635); assay: P450-Glo CYP450 inhibition, CYP2D6; type: in vitro ADME; settings: highest concentration 62.6 μM; listed as ISP358-2
T7 construct: purchased Promega Corporation (Madison, WI)
Method: as §1

T6 sequence (P11712 whole entry): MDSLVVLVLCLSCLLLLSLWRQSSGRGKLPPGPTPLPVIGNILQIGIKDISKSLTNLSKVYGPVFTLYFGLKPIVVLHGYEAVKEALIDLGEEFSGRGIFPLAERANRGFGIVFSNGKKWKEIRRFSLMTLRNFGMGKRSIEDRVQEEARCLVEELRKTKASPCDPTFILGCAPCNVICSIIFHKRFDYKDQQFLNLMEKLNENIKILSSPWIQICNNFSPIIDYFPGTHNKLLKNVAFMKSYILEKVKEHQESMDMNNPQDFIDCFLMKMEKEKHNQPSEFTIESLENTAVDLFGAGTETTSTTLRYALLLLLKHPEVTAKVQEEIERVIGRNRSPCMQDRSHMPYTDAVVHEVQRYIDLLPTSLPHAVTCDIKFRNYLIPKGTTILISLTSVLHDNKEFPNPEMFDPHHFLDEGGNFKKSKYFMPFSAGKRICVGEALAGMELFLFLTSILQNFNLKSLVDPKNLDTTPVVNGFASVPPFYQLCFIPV
T7 sequence (P10635 whole entry): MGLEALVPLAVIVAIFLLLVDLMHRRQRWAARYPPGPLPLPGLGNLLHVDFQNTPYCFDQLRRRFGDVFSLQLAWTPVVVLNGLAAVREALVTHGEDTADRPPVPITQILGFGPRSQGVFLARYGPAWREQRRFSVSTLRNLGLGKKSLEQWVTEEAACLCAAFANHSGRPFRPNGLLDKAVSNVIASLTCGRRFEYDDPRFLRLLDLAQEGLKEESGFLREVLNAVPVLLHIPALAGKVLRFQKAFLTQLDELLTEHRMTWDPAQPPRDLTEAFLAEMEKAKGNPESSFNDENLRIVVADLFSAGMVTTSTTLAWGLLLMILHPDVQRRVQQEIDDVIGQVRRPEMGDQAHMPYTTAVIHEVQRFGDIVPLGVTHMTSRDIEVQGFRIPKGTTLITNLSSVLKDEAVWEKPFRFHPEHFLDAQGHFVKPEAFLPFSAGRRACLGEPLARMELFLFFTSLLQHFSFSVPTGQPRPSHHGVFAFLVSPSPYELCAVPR

Compound: OC[C@H]1CC[C@H](c2ccc(O)cc2)CC1 [Compound 16]
- agonist activity, AR (Androgen Receptor (AR)): not an agonist; also recorded: no significant off-target activity
- agonist activity, MR [1]: not an agonist; also recorded: no significant off-target activity
- agonist activity, PPARδ [2]: not an agonist; also recorded: no significant off-target activity
- agonist activity, VDR (Vitamin D Receptor (VDR)): not an agonist; also recorded: no significant off-target activity
- IC50 (ERα): 20.4 µM and 18.6 µM
- CYP2C9 inhibition (CYP2C9): no significant inhibition
- IC50 (CYP2C9): 34 ± 4.7 µM
- CYP2D6 inhibition (CYP2D6): no significant inhibition
